For series [1], the system named is bovine nasal and pig articular cartilage. The following applies: Andrews et al. 1992; Ellis et al. 1994; cited from earlier work.
The test system of series [2] is experimental allergic encephalomyelitis (EAE). Particulars: Gijbels, et al., J. Clin. Invest., 1994; cited from earlier work.
A further series addresses T1, MMP01 (Homo sapiens, UniProt P03956).
T1 construct: purchased Washington University School of Medicine, St. Louis, Mo
T1 sequence (P03956 100-469): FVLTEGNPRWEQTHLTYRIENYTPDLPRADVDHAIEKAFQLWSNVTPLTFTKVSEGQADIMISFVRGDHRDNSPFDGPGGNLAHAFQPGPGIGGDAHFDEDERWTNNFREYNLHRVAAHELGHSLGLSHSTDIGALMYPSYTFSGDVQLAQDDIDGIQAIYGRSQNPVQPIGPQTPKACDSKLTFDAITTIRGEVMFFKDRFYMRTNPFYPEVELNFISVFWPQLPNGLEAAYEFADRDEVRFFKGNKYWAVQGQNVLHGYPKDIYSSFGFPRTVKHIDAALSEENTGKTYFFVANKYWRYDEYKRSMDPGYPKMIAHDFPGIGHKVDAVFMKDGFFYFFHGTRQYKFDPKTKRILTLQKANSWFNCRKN
The experiment in a line: Thiopeptolide assay, MMP01. Type of series: biochemical. Particulars: Table 1; read-out: IC50 MMP01.

Series [3] addresses gelatinase A catalytic domain (MMP02). The series can be described thus: Thiopeptolide assay, gelatinase A catalytic domain (GCD, MMP02). In kind it is biochemical. Particulars: Table 1; GCD; read-out: IC50 MMP02.
Another series addresses T2, MMP09 (Homo sapiens, UniProt P14780).
T2 construct: purchased Washington University School of Medicine, St. Louis, Mo
The experiment in a line: Thiopeptolide assay, MMP09. Type of series: biochemical. Particulars: Table 1. As to the method: IC50 values were determined using a thiopeptolide substrate, Ac-Pro-Leu-Gly-thioester-Leu-Leu-Gly-OEt (Ye Q.-Z., Johnson L. L., Hupe D. J., and Baragi V., "Purification and Characterization of the Human Stromelysin Catalytic Domain Expressed in Escherichia coli," Biochemistry, 1992;31:11231-11235). MMP01, MMP07, MMP09, and MMP13 activity was assayed in a method similar to MMP02 and MMP03 (SCD and GCD). MMP01 and MMP09 can be obtained from Washington University School of Medicine, St. Louis, Mo. MMP07 can be obtained in accordance with the known procedure set forth by Ye QZ, Johnson L. L., and Baragi V., "Gene Syntheses and Expression in E. coli for PUMP, a Human Matrix Metalloproteinase" Biochem. and Biophys. Res. Comm., 1992; 186:143-149. MMP 13 can be obtained in accordance with the known procedure set forth by Freije J. M. P., et al., "Molecular Cloning and Expression of Collegenase-3, a Novel Human Matrix Metalloproteinase Produced by Breast Carcinomas" J. Bio. Chem., 1994;269:16766-6773.
Hydrolysis of the thiopeptolide substrate Ac-Pro-Leu-Gly-thioester-Leu-Leu-Gly-OEt (Bachem) is used as the primary screen to determine IC50 values for MMP inhibitors. […] The change in absorbance at 405 riM is monitored on a ThermoMax microplate reader at room temperature continuously for 20 minutes.

Series [4] in a line: MMP Inhibitor Bioassay (plasma levels after gavage). In kind it is in vivo. Particulars: rat, po, 50 mg/kg by gavage. Here is the method: Animals are dosed by gavage with either vehicle or compound at 2, 10, or 50 mg/kg. Blood samples are collected from 3-4 animals from each dosing group at 1, 2, 4, 6, and 24 hour postdose, centrifuged, and the plasma immediately frozen at -20° C. Plasma protein is precipitated with an equal volume of acetonitrile and separated by centrifugation at room temperature. The supernate is evaporated to dryness and reconstituted to the original plasma volume with 50 mM Tris, pH 7.6. Ten-fold serial dilutions of the reconstituted plasma samples are prepared in 50 mM Tris, pH 7.6 for dose response assays using the appropriate thiopeptolide assay. The concentration of plasma which yields 50% inhibition of enzyme is determined and used to calculate the inhibitor plasma level from the known IC50 value. […] All control samples are subjected to acetonitrile precipitation and analyzed with the thiopeptolide assay.

The target of series [5] is T3, stromelysin-1 catalytic domain (MMP03) (Homo sapiens, UniProt P08254).
T3 construct: SCD (stromelysin-1 catalytic domain); made in house; host or cells: Escherichia coli
The series can be described thus: Thiopeptolide assay, stromelysin-1 catalytic domain (SCD, MMP03). The following applies: Table 1; SCD; read-out: IC50 MMP03. In kind it is biochemical.

The target in another series is T4, MMP07 (Homo sapiens, UniProt P09237).
T4 construct: made in house; host or cells: Escherichia coli
T4 sequence (P09237 95-267): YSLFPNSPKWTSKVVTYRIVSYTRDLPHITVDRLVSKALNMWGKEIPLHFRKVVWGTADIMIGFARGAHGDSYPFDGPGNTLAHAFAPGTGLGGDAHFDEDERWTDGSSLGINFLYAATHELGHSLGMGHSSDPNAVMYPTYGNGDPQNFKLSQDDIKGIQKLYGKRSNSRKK
The experiment in a line: Thiopeptolide assay, MMP07. In kind it is biochemical. The following applies: Table 1; read-out: IC50 MMP07.

For another series, the system named is MMP13. The series can be described thus: Thiopeptolide assay, MMP13. The following applies: Table 1. In kind it is biochemical, human. As to the method:
MMP01, MMP07, MMP09, and MMP13 activity was assayed in a method similar to MMP02 and MMP03 (SCD and GCD). MMP01 and MMP09 can be obtained from Washington University School of Medicine, St. Louis, Mo. MMP07 can be obtained in accordance with the known procedure set forth by Ye QZ, Johnson L. L., and Baragi V., "Gene Syntheses and Expression in E. coli for PUMP, a Human Matrix Metalloproteinase" Biochem. and Biophys. […] MMP 13 can be obtained in accordance with the known procedure set forth by Freije J. M. P., et al., "Molecular Cloning and Expression of Collegenase-3, a Novel Human Matrix Metalloproteinase Produced by Breast Carcinomas" J. Bio.
Hydrolysis of the thiopeptolide substrate Ac-Pro-Leu-Gly-thioester-Leu-Leu-Gly-OEt (Bachem) is used as the primary screen to determine IC50 values for MMP inhibitors. A 100 μL reaction contains 1 mM 5,5'-dithiobis(2-nitrobenzoic acid) (DTNB), 100 μM substrate, 0.1% Brij, enzyme, and inhibitor in the appropriate reaction buffer. Activated full-length enzymes are assayed at 5 nM, Stromelysin Catalytic Domain (SCD) at 10 nM, and Gelatinase A Catalytic Domain (GaCD) at 1 nM. Inhibitors are screened from 100 μM to 1 nM. Full-length enzymes are assayed in 50 mM HEPES, 10 mM CaCl2, pH 7.0; SCD in 50 mM MES, 10 mM CaCl2, pH 6.0; and GaCD in 50 mM MOPS, 10 mM CaCl2, 10 μM ZnCl2, pH 7.0.

By IC50 is commonly meant the midpoint of a concentration-inhibition curve.

T2 sequence (P14780 107-707 limits assumed): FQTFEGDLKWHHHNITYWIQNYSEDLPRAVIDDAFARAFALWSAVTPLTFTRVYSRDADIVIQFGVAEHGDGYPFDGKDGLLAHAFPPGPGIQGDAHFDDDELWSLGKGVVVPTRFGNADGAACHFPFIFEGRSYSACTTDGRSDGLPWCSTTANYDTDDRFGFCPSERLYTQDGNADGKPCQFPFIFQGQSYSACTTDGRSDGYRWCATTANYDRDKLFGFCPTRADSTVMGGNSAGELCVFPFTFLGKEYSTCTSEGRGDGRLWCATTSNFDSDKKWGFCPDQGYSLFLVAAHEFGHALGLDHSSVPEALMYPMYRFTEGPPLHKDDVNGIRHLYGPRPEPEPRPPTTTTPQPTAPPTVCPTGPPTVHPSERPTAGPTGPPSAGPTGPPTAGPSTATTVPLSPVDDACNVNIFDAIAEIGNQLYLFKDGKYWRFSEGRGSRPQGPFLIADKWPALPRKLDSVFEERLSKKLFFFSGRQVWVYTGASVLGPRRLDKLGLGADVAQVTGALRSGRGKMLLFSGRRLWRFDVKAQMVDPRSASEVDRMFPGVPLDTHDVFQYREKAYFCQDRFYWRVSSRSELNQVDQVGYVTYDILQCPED
T3 sequence (P08254 100-272 limits assumed): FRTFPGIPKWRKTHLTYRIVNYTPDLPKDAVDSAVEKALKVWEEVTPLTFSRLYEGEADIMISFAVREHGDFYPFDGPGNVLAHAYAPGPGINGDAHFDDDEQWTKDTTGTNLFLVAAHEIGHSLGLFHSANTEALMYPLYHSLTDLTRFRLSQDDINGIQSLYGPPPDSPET

With “TIMP-1: TIMP-1; TIMPs are natural endogenous inhibitors of MMPs”, in [1], the “formation of collagen fragments” value was “prevented the formation of collagen fragments”.
`CNC(=O)[C@H](Cc1c[nH]c2ccccc12)NC(=O)[C@@H](CC(=O)NO)CC(C)C` [GM6001]: the “effect on EAE” value in series [2] is reported as “suppressed the development or reversed the clinical expression of experimental allergic encephalomyelitis (EAE) in a dose dependent manner”.
As to `O=C(O)[C@H](CCc1ccccc1)NS(=O)(=O)c1ccc2oc3ccccc3c2c1` [Example 1, (S)-2-(Dibenzofuran-2-sulfonylamino)-4-phenyl-butyric acid], the IC50 turned out to be 47 µM at MMP01, 0.27 µM in series [3] and 67 µM against MMP09. Besides, in series [4] (24 hours, read-out: plasma levels at 24 hours postdose), the concentration at 24 h stood at 29 µM. In addition, the Cmax in series [4] (at 1 to 4 hours, read-out: peak plasma levels) worked out at 71 µM. The Tmax in [4] (read-out: time of peak plasma levels) fell in the range of 1 to 4 h.
As for `O=C(O)[C@H](CCc1ccccc1)NS(=O)(=O)c1ccc2c(c1)Cc1ccccc1-2` [Example 9, (S)-2-(9H-Fluorene-2-sulfonylamino)-4-phenyl-butyric acid], the IC50 at MMP01 was 49.5 µM; in series [3], 0.024 µM; in series [5] it was 0.0465 µM; on MMP07, 2.55 µM; against MMP09, 100 µM; with MMP13 it was 0.33 µM.

These data come from US6294674A, “Dibenzofuran sulfonamide matrix metalloproteinase inhibitors” (priority 1999, dated 2001).
